Results as given in US5554542A, “Immunoassay for isothiazolones” (Rohm and Haas Company, priority 1993, dated 1996).

Assays:
[1] = tested on: antibodies in mouse serum; test: Competitive inhibition ELISA (CIEIA) screening of mouse sera for isothiazolone antibodies; assay type: binding, BALB/c mice; details: for % Inhibition: inhibitor final 1 ppm, b98 says 10^-4 M; for Reactivity of serum antibodies toward inhibitor: serum of mouse 1E, immunized with 573-THY
Description: Blood samples were taken from the mice immunized in the above example. The sera were separated from the red blood cells by centrifugation. The sera were then screened for activity using competitive inhibition ELISA (CIEIA). Ninety-six well polystyrene EIA ([…]) plates were coated with 100 μl of 651 conjugated to BSA (651-BSA), 651 conjugated to THY (651-THY), 573 conjugated to BSA (573-BSA), or 573 conjugated to THY (573-THY) for at least two hours at room temperature or 16 hours at 4° C. Unbound material was washed from the wells with five washes of PBS-T. The wells then received 50 μl of buffer alone (PBS-T) or inhibitors, either 651 or 573, each diluted to 2 ppm in buffer. The wells then received 50 μl of mouse serum, so that each serum was reacted with either buffer, 651 or 573 (inhibitors). […] The wells were incubated for 30-60 minutes at room temperature. They were then washed five times with PBS-T to remove unbound material and each well then received 100 μl of a 1 μg/ml solution of biotinylated horse anti-mouse IgG (Vector Laboratories, Burlingame, Calif.), and the assay continued as described for the ELISA, supra.
If the antibodies in a serum were reactive with one or both of the inhibitors in solution in the wells, the antibody molecules, or a percentage of the antibody molecules, would bind to the inhibitors, and would therefore form an antibody-inhibitor complex which would stay in solution and be removed from the plate during the washing step. In such a case, the binding of the antibody to the inhibitor would reduce the number of antibody molecules available to bind to the coating antigen, 651-BSA. Because fewer antibody molecules are attached to the 651-BSA, there is a reduction in the number of biotinylated horse anti-mouse IgG molecules bound, resulting in fewer molecules of avidin-peroxidase complex being bound, resulting in reduced hydrolysis of the substrate, leading ultimately to lower absorbances. In all cases, the inhibitor concentration was 10^-4 M.

[2] = tested on: antibodies in hybridoma culture supernatants (CF10, EH9, EC2, EC2 IB8); test: CIEIA of hybridoma culture supernatants; assay type: binding, mouse; details: culture EH9, supernatant dilution 1:4, tested versus 0.4 ppm of inhibitor, coating 651-BSA; no inhibitor 0.515
[3] = tested on: antibodies of 89-147EH9 clones; test: CIEIA reactivity of 89-147EH9 clones with compounds 651 and 573; assay type: binding, mouse
Description: (§1) The supernatants from wells with growing colonies of hybridomas were screened using CIEIA. Ninety-six well polystyrene EIA ([…]) plates were coated with 100 μl of 651 conjugated to BSA (651-BSA) for at least two hours at room temperature or 16 hours at 4° C. Unbound material was washed from the wells with five washes of PBS-T. The wells then received 50 μl of buffer alone (PBS-T) or inhibitors, either 651 or 573, each diluted to 2 ppm in buffer. The wells then received 50 μl of supernatant from each cell culture, so that each supernatant was reacted with either buffer, 651 or 573 (inhibitors). […] The wells were incubated for 30-60 minutes at room temperature. They were then washed five times with PBS-T to remove unbound material and each well then received 100 μl of a 1 μg/ml solution of biotinylated horse anti-mouse IgG (Vector Laboratories, Burlingame, Calif.), and the assay continued as described for the ELISA, supra.
In order to assure that the antibodies reactive with compound 651 were produced by cells of the identical genetic makeup, it was necessary to derive clones of cell culture 89--147EH9. Cloning was accomplished by first determining the total number of viable cells in a population of 89-147EH9 cells. The cell population was then diluted to a density of 4-5 cells per ml of cell culture medium. Two hundred μl of this cell suspension was then planted in each well of four 96 well cell culture dishes, designated I-IV. Fourteen days later, each well was checked by microscopic evaluation for growing colonies of cells. Those with only a single loci of cells were designated monoclonal.
Subsequently, each colony was tested for reactivity in the ELISA described previously. Of the colonies, several were selected for expansion and retesting by CIEIA for reactivity with both 651 and 573.

[4] = tested on: antibodies produced by cell culture 89-147EH9; test: CIEIA for detection of biocides, four inhibitors at several concentrations; assay type: binding, mouse; details: for 10 Minute Absorbances × 1000: no inhibitor 515
Description: as §1, with “The wells then received 50 μl of buffer alone (PBS-T) or inhibitors, either 651 or 573, each diluted to 2 ppm in buffer.” left out

[5] = mouse 1D serum, immunogen 573-BSA, coating conjugate 573-THY
[6] = mouse 1D serum, immunogen 573-BSA, coating conjugate 651-THY
[7] = mouse 1E serum, immunogen 573-THY, coating conjugate 573-BSA
[8] = mouse 1E serum, immunogen 573-THY, coating conjugate 651-BSA
[9] = mouse 2D serum, immunogen 573-BSA, coating conjugate 651-THY
[10] = mouse 2E serum, immunogen 573-THY, coating conjugate 573-BSA
[11] = mouse 2E serum, immunogen 573-THY, coating conjugate 651-BSA
[12] = clone IA5, inhibitor 1 PPM, PBS 528
[13] = clone ID5, inhibitor 1 PPM, PBS 584
[14] = clone ID8, inhibitor 1 PPM, PBS 746
[15] = clone IID1, inhibitor 1 PPM, PBS 060
[16] = clone IIIH6, inhibitor 1 PPM, PBS 647
[17] = clone IVE1, inhibitor 1 PPM, PBS 818
[18] = clone IVE4, inhibitor 1 PPM, PBS 595
[19] = clone IVF12, inhibitor 1 PPM, PBS 090
[20] = clone IVH2, inhibitor 1 PPM, PBS 680
[21] = inhibitor concentration 0.08 ppm
[22] = inhibitor concentration 0.4 ppm

SMILES | % Inhibition [1, 5] [%] | % Inhibition [1, 6] [%] | % Inhibition [1, 7] [%] | % Inhibition [1, 8] [%] | % Inhibition [1, 9] [%] | % Inhibition [1, 10] [%] | % Inhibition [1, 11] [%] | Reactivity of serum antibodies toward inhibitor [1] | Inhibitors (Absorbance) [2] | % I (percentage inhibition) ([3]; clone IA5, inhibitor 1 PPM) [%] | Absorbances × 1000 [3, 12] | % I (percentage inhibition) ([3]; clone ID5, inhibitor 1 PPM) [%] | Absorbances × 1000 [3, 13] | % I (percentage inhibition) ([3]; clone ID8, inhibitor 1 PPM) [%] | Absorbances × 1000 [3, 14] | % I (percentage inhibition) ([3]; clone IID1, inhibitor 1 PPM) [%] | Absorbances × 1000 [3, 15] | % I (percentage inhibition) ([3]; clone IIIH6, inhibitor 1 PPM) [%] | Absorbances × 1000 [3, 16] | % I (percentage inhibition) ([3]; clone IVE1, inhibitor 1 PPM) [%] | other results
Cn1sccc1=O [compound 573, 2-methyl-3-isothiazolone] | 12 | 0 | 21 | 28 | 0 | 10 | 12 | reactive | 0.504 | 10.8 | 471 | 0.0 | 671 | 0.0 | 1068 | < 1.0 | 057 | 0.0 | 705 | 34.1 | Absorbances × 1000 [3, 17]: 539; % I (percentage inhibition) ([3]; clone IVE4, inhibitor 1 PPM): 9.4%; Absorbances × 1000 [3, 18]: 539; % I (percentage inhibition) ([3]; clone IVF12, inhibitor 1 PPM): 18.9%; Absorbances × 1000 [3, 19]: 073; % I (percentage inhibition) ([3]; clone IVH2, inhibitor 1 PPM): 7.0%; Absorbances × 1000 [3, 20]: 632; 10 Minute Absorbances × 1000 [4, 21]: 590; 10 Minute Absorbances × 1000 [4, 22]: 461; 10 Minute Absorbances × 1000 ([4]; inhibitor concentration 2 ppm): 504; 10 Minute Absorbances × 1000 ([4]; inhibitor concentration 10 ppm): 344; 10 Minute Absorbances × 1000 ([4]; inhibitor concentration 50 ppm): 191
Cn1sc(Cl)cc1=O [compound 651, 5-chloro-2-methyl-3-isothiazolone] | 0 | 10 | 44 | 34 | 12 | 12 | 7 | reactive | 0.186 | 34.1 | 348 | 26.5 | 429 | 0.0 | 807 | < 1.0 | 055 | 27.2 | 471 | 44.7 | Absorbances × 1000 [3, 17]: 452; % I (percentage inhibition) ([3]; clone IVE4, inhibitor 1 PPM): 39.3%; Absorbances × 1000 [3, 18]: 361; % I (percentage inhibition) ([3]; clone IVF12, inhibitor 1 PPM): 27.8%; Absorbances × 1000 [3, 19]: 065; % I (percentage inhibition) ([3]; clone IVH2, inhibitor 1 PPM): 46.2%; Absorbances × 1000 [3, 20]: 366; Relative reactivity of the antibodies with the compounds tested ([4]; 89-147EH9 antibodies, 651 versus similar amounts of other biocides): more strongly reactive; 10 Minute Absorbances × 1000 ([4]; inhibitor concentration 0.016 ppm): 491; 10 Minute Absorbances × 1000 [4, 21]: 448; 10 Minute Absorbances × 1000 [4, 22]: 338; 10 Minute Absorbances × 1000 ([4]; inhibitor concentration 2 ppm): 185; 10 Minute Absorbances × 1000 ([4]; inhibitor concentration 10 ppm): 106
